{"source": "paper PMC4374176", "about": "(ACS Chemical Biology, 2014)", "key": {"AT2R [1]": {"target": "AT2R", "assay": "[125I]-AII radioligand binding on isolated membranes, wild type AT2R", "details": "saturation assay, membranes of transfected HEK-293T cells, 2 hours on ice", "from_the_text": "(§1) Materials. AT2R receptor-specific blocker PD123319 was purchased from Sigma-Aldrich Chemical Co. (St. Louis, MO). Human AGTR2 pcDNA3.1+ was obtained from the UMR cDNA Resource Center (University of Missouri-Rolla, Rolla, MO). All other chemicals were of analytic grade. The AT1aR and AT2R constructs were a kind gift from Lazlo Hunyady (Semmelweis University, Budapest, Hungary;1).\n(§2) Mutagenesis. AT2R mutants were generated as described elsewhere.2\nCell culture and transient transfection. HEK-293T cells were maintained at 37 °C in Dulbecco's modified Eagle's medium (DMEM) supplemented with 10% (v/v) fetal bovine serum (FBS), 2 mM glutamine, 100 U/ml penicillin, and 100 µg/ml streptomycin. […]\n(§3) (pcDNAI/Amp) or AT2R variants using GeneJuice transfection reagent according to the manufacturer’s instructions. Cells were harvested 48 hours after transfection, crude membranes were prepared and resuspended in binding buffer (50 mM Tris-HCl pH 7.4, 100 mM NaCl, 10 mM MgCl2, 1mM EDTA, 0.2% BSA and 0.025% Bacitracin, protease inhibitors) at a protein concentration of 3.3 μg/μl as determined by the amido black protein assay. […]\n(§4) 0-10 nM (8 data points in triplicate). Non-specific binding was determined in […]\nthe Figure 3. […] Radioactivity was counted on a Beckman LS6000 liquid scintillation counter and data were analyzed by non-linear regression using Prism software (GraphPad). […]"}, "[2]": {"tested_on": "AT2R-overexpressing PC12W cells", "assay": "Neurite outgrowth in AT2R-overexpressing PC12W cells", "format": "cell-based, rat", "details": "Ad-AT2R transduced PC12W cells, 1 nM, 24 h stimulation; dose-dependent in the range of 1 pM to 100 nM", "experimental": "Figure 3 (a) Competition binding assays of [Y]^6-AII analogue to AT1R, AT2R wild type, and mutants: AT1R, open circle; wild type AT2R, black circles; AT2R-Y189A, blue diamonds; AT2R-Y189N, green triangle; AT2R-F272(6.51)A, red square; AT2R-F272(6.51)H, orange triangle. Kd and Ki values are given in Supplementary Table S3. […] The neurite outgrowth-positive cells were defined as the cells with neurite length longer than their cell diameters. This experiment was carried out in triplicate and repeated twice.\nas §1\nMutagenesis. AT2R mutants were generated as described elsewhere.2 […]\nas §3"}, "AT2R [3]": {"target": "T1, AT2R (Homo sapiens, UniProt P50052)", "T1 construct": "expressed in transfected cells", "T1 sequence (P50052 1-363)": "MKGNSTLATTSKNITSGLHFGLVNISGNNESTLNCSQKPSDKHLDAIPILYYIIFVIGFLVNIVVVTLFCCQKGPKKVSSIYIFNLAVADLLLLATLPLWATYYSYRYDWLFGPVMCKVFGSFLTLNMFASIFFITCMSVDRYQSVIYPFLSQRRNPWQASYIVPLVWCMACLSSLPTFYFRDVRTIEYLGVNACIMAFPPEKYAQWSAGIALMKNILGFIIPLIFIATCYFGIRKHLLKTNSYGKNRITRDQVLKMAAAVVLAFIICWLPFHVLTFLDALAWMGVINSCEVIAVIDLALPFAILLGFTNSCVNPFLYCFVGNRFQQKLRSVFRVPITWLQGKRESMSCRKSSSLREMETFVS", "assay": "Whole cell competition binding assay, AT2R-HEK-293 stable cell line", "details": "for IC50: whole cells, Table S4, read-out: Log IC50 AT2R (converted); for Fold selectivity AT1R/AT2R (IC50AT1R/IC50AT2R): whole cell IC50 values; for fold lower AT2R selectivity in comparison to [Y]6-AII: AT2R/AT1R selectivity relative to [Y]6-AII", "from_the_text": "as §1, §2\nCell culture and transient transfection. HEK-293T cells were maintained at 37 °C in Dulbecco's modified Eagle's medium (DMEM) supplemented with 10% (v/v) fetal bovine serum (FBS), 2 mM glutamine, 100 U/ml penicillin, and 100 µg/ml streptomycin. Cells were transfected with either AT1R (pcDNA3.1), AT2R\n(pcDNAI/Amp) or AT2R variants using GeneJuice transfection reagent according to the manufacturer’s instructions. Cells were harvested 48 hours after transfection, crude membranes were prepared and resuspended in binding buffer (50 mM Tris-HCl pH 7.4, 100 mM NaCl, 10 mM MgCl2, 1mM EDTA, 0.2% BSA and 0.025% Bacitracin, protease inhibitors) at a protein concentration of 3.3 μg/μl as determined by the amido black protein assay. For whole cells assays, HEK-293 cells stably transfected with either AT1R or the AT2R (kindly supplied by Professor W. Thomas, University of Queensland) were used. These cells were grown to approximately 80% confluence and were then re-plated into 48 well plates at 1x10^5 cells/well and grown for 48 hours at 37°C for a whole cell competition binding assay, as described previously.4 Minor differences between the binding assays performed on isolated membrane preparation and whole cells are probably due to the loss of G-protein in the former.5 PC12W cells, a substrain from a clonal isolation of a rat adrenal chromaffin cell tumor, were cultured in DMEM supplemented with 10% FBS, 100 units/ml penicillin and 100μg/ml streptomycin (Invitrogen, Carlsbad, CA) as previously described.6 The cells were incubated in a 5% CO2 humidified incubator at 37°C. Preparation of recombinant replication-deficient adenovirus containing the human AT2R coding region was carried out by VECTOR BIOLABS (Philadelphia, PA).\nFor gene transduction with adenoviral vectors cells were seeded at 1.2 x 10^5 cells per well in a 6-well plate. After 24 hours, cells were incubated at 37°C for 6 hours in serum-free DMEM containing adenoviral vectors (Ad-AT2R 30 multiplicity of infection (MOI)), and shaken lightly every fifteen minutes. After 6 hr incubation, cells were cultured in 10% FBS containing DMEM at 37°C, 5% CO2 for an additional 24 hours.\nCells were then trypsinized and subcultured at a density of 2 x 10^3 cells per well on a 24-well plate. For the evaluation of the effect of [Y]6-AII analogue on the neurite outgrowth of PC12W cells, at 24 hours after subculture, control cells and the AT2R […]\nRadioligand binding assays. Saturation curves on cell membranes were obtained using 10 μg protein per data point and a range of *125I]-AII (Amersham) concentration […]\nas §4\nCompetition assays were performed using a concentration […]\nthe Figure 3. Samples were incubated for 2 hours at 4°C. Receptor-bound and free radioligand were separated by filtration through Whatman GF/B filters, pre-soaked with 0.3% polyethylamine. The filters were washed with 5 ml of ice-cold binding buffer and transferred to scintillation tubes. Radioactivity was counted on a Beckman LS6000 liquid scintillation counter and data were analyzed by non-linear regression using Prism software (GraphPad). Ki values were calculated according to the Cheng […]\nExperiments on whole cells were performed in both AT1R- and AT2R-HEK-293 stable cell lines, as previously described in detail4 with minor modifications. Novel peptides and references compounds, CGP42112 and candesartan, were examined for their ability to inhibit specific binding of [125I]-Ang II, and nonspecific binding was determined using 10μM cold Ang II. […]"}, "AT1R": {"target": "T2, AT1R (Rattus norvegicus, UniProt P25095)", "T2 construct": "expressed in transfected cells; host or cells: HEK-293T, transient, crude membranes", "T2 sequence (P25095 1-359)": "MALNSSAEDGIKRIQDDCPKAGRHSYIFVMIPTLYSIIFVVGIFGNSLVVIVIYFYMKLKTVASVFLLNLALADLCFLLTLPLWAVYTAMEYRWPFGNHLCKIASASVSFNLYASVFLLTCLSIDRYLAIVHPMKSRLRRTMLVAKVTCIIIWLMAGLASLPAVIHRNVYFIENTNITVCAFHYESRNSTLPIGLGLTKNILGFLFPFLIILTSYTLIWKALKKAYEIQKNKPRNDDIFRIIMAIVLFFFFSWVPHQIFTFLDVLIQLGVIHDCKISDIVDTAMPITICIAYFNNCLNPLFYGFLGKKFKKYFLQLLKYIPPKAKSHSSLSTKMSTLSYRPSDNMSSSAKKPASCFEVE", "assay": "[125I]-AII radioligand binding on isolated membranes, AT1R", "details": "competition with [125I]-AII, ligand concentration range 6.4 x 10-12-2.5 x 10^-6 M"}, "PAR4 receptor": {"tested_on": "PAR4 receptor", "design": "method as in Faruqi T., et al. [12]", "details": "ref Faruqi T., et al. [12]; cited from earlier work"}, "PAR1 receptor": {"tested_on": "PAR1 receptor", "design": "method as in Faruqi T., et al. [12]", "details": "ref Faruqi T., et al. [12]; cited from earlier work"}}, "note": "Ends that are not written are not given here. Peptide text beside a SMILES is read from it."}
{"compound": "CC[C@H](C)[C@H](NC(=O)[C@H](Cc1ccc(O)cc1)NC(=O)[C@@H](NC(=O)[C@H](CCCNC(=N)N)NC(=O)[C@@H](N)CC(=O)O)C(C)C)C(=O)N[C@@H](Cc1c[nH]cn1)C(=O)N1CCC[C@H]1C(=O)N[C@@H](Cc1ccccc1)C(=O)O", "note": "[AII]", "values": [{"measurement": "Kd", "setting": "AT2R [1]", "value": 2.3, "unit": "nM"}, {"measurement": "neurite outgrowth", "setting": "[2]", "value": "significantly stimulated neurite outgrowth"}]}
{"compound": "CC[C@H](C)[C@H](NC(=O)[C@@H]1CCCN1C(=O)[C@H](Cc1c[nH]cn1)NC(=O)[C@H](CCCCNC(=O)[C@H](CCCN=C(N)N)NC(=O)OCc1ccccc1)NC(=O)[C@H](Cc1ccc(O)cc1)NC(=O)c1cccnc1)C(=O)O", "note": "[CGP42112] (HELM PEPTIDE1{[O=C(c1cccnc1)[*:2]].Y.K.H.P.I}|PEPTIDE2{[O=C(OCc1ccccc1)[*:2]].R}$PEPTIDE1,PEPTIDE2,3:R3-2:R2$$$V2.0)", "values": [{"measurement": "IC50", "setting": "AT2R [3]", "value": 0.558, "unit": "nM"}]}
{"compound": "CCOc1nc2cccc(C(=O)O)c2n1Cc1ccc(-c2ccccc2-c2nnn[nH]2)cc1", "note": "[Candesartan, candesartan]", "values": [{"measurement": "IC50", "setting": "AT2R [3]", "value": 13500, "unit": "nM"}]}
{"compound": "CC[C@H](C)[C@H](NC(=O)[C@H](Cc1ccc(O)cc1)NC(=O)[C@@H](NC(=O)[C@H](CCCNC(=N)N)NC(=O)[C@@H](N)CC(=O)O)C(C)C)C(=O)N[C@@H](Cc1ccc([N+](=O)[O-])cc1)C(=O)N1CCC[C@H]1C(=O)N[C@@H](Cc1ccccc1)C(=O)O", "note": "[[4-NO2-F]^6-AII, D1-R2-V3-Y4-I5-(4-NO2-F)6-P7-F8] (HELM PEPTIDE1{D.R.V.Y.I.[O=C([C@H](Cc1ccc([N+](=O)[O-])cc1)N[*:1])[*:2]].P.F}$$$$V2.0)", "values": [{"measurement": "Fold selectivity AT1R/AT2R (IC50AT1R/IC50AT2R)", "setting": "AT2R [3]", "value": 694, "unit": "fold"}, {"measurement": "fold lower AT2R selectivity in comparison to [Y]6-AII", "setting": "AT2R [3]", "value": 26, "unit": "fold"}, {"measurement": "IC50", "setting": "AT2R [3]", "value": 4.92, "unit": "nM"}]}
{"compound": "CC[C@H](C)[C@H](NC(=O)[C@H](Cc1ccc(O)cc1)NC(=O)[C@@H](NC(=O)[C@H](CCCNC(=N)N)NC(=O)[C@@H](N)CC(=O)O)C(C)C)C(=O)N[C@@H](Cc1ccc(OP(=O)(O)O)cc1)C(=O)N1CCC[C@H]1C(=O)N[C@@H](Cc1ccccc1)C(=O)O", "note": "[[4-OPO3H2-F]^6-AII, D1-R2-V3-Y4-I5-(4-OPO3H2-F)6-P7-F8] (HELM PEPTIDE1{D.R.V.Y.I.[O=C([C@H](Cc1ccc(OP(=O)(O)O)cc1)N[*:1])[*:2]].P.F}$$$$V2.0)", "values": [{"measurement": "Ki AT1R", "setting": "AT1R", "value": "No detectable competitive binding"}, {"measurement": "Fold selectivity AT1R/AT2R (IC50AT1R/IC50AT2R)", "setting": "AT2R [3]", "value": 4479, "unit": "fold"}, {"measurement": "IC50", "setting": "AT2R [3]", "value": 9.57, "unit": "nM"}]}
{"compound": "DRVYIFPF [[F]^6-AII, D1-R2-V3-Y4-I5-F6-P7-F8] [listing 1 of 2 here]", "values": [{"measurement": "IC50", "setting": "AT2R [3]", "value": 1.4, "unit": "nM"}]}
{"compound": "DRVYIFPF [[F]^6-AII, D1-R2-V3-Y4-I5-F6-P7-F8] [listing 2 of 2 here]", "values": [{"measurement": "Fold selectivity AT1R/AT2R (IC50AT1R/IC50AT2R)", "setting": "AT2R [3]", "value": 4786, "unit": "fold"}, {"measurement": "fold lower AT2R selectivity in comparison to [Y]6-AII", "setting": "AT2R [3]", "value": "~4", "unit": "fold"}]}
{"compound": "DRVYIYPF [[Y]^6-AII, D1-R2-V3-Y4-I5-Y6-P7-F8]", "values": [{"measurement": "Ki AT1R", "setting": "AT1R", "value": "No detectable competitive binding"}, {"measurement": "Fold selectivity AT1R/AT2R (IC50AT1R/IC50AT2R)", "setting": "AT2R [3]", "value": "18,000 fold"}]}
{"compound": "G(F)PGKF", "values": [{"measurement": "PAR4 receptor activity", "setting": "PAR4 receptor", "value": 61}, {"measurement": "PAR1 receptor activity", "setting": "PAR1 receptor", "value": 111}]}
{"compound": "GFPGKF", "values": [{"measurement": "PAR4 receptor activity", "setting": "PAR4 receptor", "value": 53}, {"measurement": "PAR1 receptor activity", "setting": "PAR1 receptor", "value": 35}]}
{"compound": "GYPGKF", "values": [{"measurement": "PAR4 receptor activity", "setting": "PAR4 receptor", "value": 55}, {"measurement": "PAR1 receptor activity", "setting": "PAR1 receptor", "value": 0}]}
{"compound": "[125I]-AII: radioiodinated AII, radioligand of the binding assays (DRVYIHPF; also: 125I label, position not given here; UniProt P01019 25-32, looked up)", "values": [{"measurement": "Kd", "setting": "AT2R [1]", "value": 2.3, "unit": "nM"}]}
